Test results taken from patent US7902224B2, “Tetrahydro-naphthalene derivatives as glucocorticoid receptor modulators” (Glaxo Group Limited, priority 2004, dated 2011).

Experiments:
glucocorticoid receptor = molecular target: T1, glucocorticoid receptor (Homo sapiens, UniProt P04150); assay: Glucocorticoid receptor binding assay (fluorescence polarisation competition); conditions: displacement of fluorescent glucocorticoid, 22° C., 2 hours; read-out: pIC50 glucocorticoid receptor binding assay (converted)
T1 construct: purchased Pan Vera (Madison, Wis., USA)
T1 sequence (P04150 1-777): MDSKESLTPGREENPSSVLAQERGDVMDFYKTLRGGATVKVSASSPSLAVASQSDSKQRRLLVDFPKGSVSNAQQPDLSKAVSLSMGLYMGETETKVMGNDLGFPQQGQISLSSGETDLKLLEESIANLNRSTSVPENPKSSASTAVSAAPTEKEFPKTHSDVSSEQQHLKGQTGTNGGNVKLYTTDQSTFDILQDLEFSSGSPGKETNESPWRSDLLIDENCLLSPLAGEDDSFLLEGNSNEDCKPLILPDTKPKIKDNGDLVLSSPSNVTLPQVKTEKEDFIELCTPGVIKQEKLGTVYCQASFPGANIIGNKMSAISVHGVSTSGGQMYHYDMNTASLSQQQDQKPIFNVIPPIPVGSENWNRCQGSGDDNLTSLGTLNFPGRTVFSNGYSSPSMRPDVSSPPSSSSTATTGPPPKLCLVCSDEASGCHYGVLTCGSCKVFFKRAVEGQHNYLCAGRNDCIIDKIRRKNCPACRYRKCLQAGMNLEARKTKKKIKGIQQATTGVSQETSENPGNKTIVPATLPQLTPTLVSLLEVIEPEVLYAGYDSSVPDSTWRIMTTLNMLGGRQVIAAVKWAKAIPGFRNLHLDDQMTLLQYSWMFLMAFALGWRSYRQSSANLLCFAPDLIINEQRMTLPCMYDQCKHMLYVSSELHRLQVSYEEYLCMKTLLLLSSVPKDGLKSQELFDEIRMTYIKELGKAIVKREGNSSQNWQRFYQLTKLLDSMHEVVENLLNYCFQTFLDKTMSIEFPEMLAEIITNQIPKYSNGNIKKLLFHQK
Procedure: Glucocorticoid Receptor Binding Assay
The ability of compounds to bind to the glucocorticoid receptor was determined by assessing their ability to compete with fluorescent-labelled glucocortioid using a kit supplied by Pan Vera (Madison, Wis., USA) or using in house reagents. Compounds were solvated and diluted in DMSO, and transferred directly into assay plates. Fluorescent glucocorticoid and partially purified glucocorticoid receptor with a stabilisation peptide were added to the plates and incubated at 22° C. for 2 hours in the dark. Binding of the compound was assessed by analysing the displacement of fluorescent ligand by measuring the decrease in fluorescence polarisation signal from the mixture.

NFkB activity = assay: Glucocorticoid mediated transrepression of NFkB activity (A549 ELAM promoter alkaline phosphatase reporter, TNFα stimulated); type: cell-based; conditions: A549 cells, 3 ng/ml human recombinant TNFα, 16 hours; read-out: pIC50 NFkB assay (converted)
Source text: Glucocorticoid mediated Transrepression of NFkB activity.
Human A549 lung epithelial cells were engineered to contain a secreted placental alkaline phosphatase gene under the control of the distal region of the NFkB dependent ELAM promoter as previously described in Ray, K. P., Farrow, S., Daly, M., Talabot, F. and Searle, N. “Induction of the E-selectin promoter by interleukin 1 and tumour necrosis factor alpha, and inhibition by glucocorticoids” Biochemical Journal. 1997 328 707-15.
Compounds were solvated and diluted in DMSO, and transferred directly into assay plates such that the final concentration of DMSO was 0.7%. Following the addition of cells (40K per well), plates were incubated for 1 hr prior to the addition of 3 ng/ml human recombinant TNFα. Following continued incubation for 16 hours, alkaline phosphatase activity was determined by measuring the change in optical density at 405 nm with time following the addition of 0.7 volumes of assay buffer (1 mg/ml p-nitrophenylphosphate dissolved in 1 M diethanolamine, 0.28M NaCl, 0.5 mM MgCl2).

[1] = test system: MMTV driven gene expression; assay: Glucocorticoid mediated transactivation of MMTV driven gene expression (luciferase reporter); type: cell-based, Human; conditions: A549 or MG63 cells, 6 hr incubation
Source text: Glucocorticoid Mediated Transactivation of MMTV Driven Gene Expression
Human A549 lung epithelial cells or human MG63 osteosarcoma were engineered to contain a renialla luciferase gene under the control of the distal region of the LTR from the mouse mammary tumour virus as previously described (Austin, R. H., Maschera, B., Walker, A., Fairbairn, L., Meldrum, E., Farrow, S. and Uings, I. J. Mometasone furoate is a less specific glucocorticoid than fluticasone propionate. European Respiratory Journal 2002 20 1386-1392).
Compounds were solvated and diluted in DMSO, and transferred directly into assay plates such that the final concentration of DMSO was 0.7%. Following the addition of cells (40K per well), plates were incubated for 6 hr. Luciferase activity was determined using the Firelight kit (Packard, Pangbourne, UK).

| Structure (SMILES) | IC50 (glucocorticoid receptor) [nM] | IC50 (NFkB activity) [nM] | efficacy in the MMTV transactivation assay compared to the NFkB assay [1] |
| --- | --- | --- | --- |
| CCC1(CC(O)(CNc2cccc3ncccc23)C(F)(F)F)CCCc2ccccc21 (stereo not shown) [Example 6-D1, 3-(1-Ethyl-1,2,3,4-tetrahydro-1-naphthalenyl)-1,1,1-trifluoro-2-[(5-guinolinylamino)methyl]-2-propanol] | < 100 | < 31.6 | reduced efficacy |
| CCC1(CC(O)(CNc2cccc3nc(C)ccc23)C(F)(F)F)CCCc2ccccc21 (single isomer, unassigned) [Example 5-D1, 3-(1-Ethyl-1,2,3,4-tetrahydro-1-naphthalenyl)-1,1,1-trifluoro-2-[[(2-methyl-5-quinolinyl)amino]methyl]-2-propanol] | < 100 | < 31.6 | reduced efficacy |
| Cc1ccc2c(NCC(O)(CC3(C)CCCc4ccccc43)C(F)(F)F)cccc2n1 (single isomer, unassigned) [Example 2-D2E2, 1,1,1-Trifluoro-3-[(2-methyl-5-quinolinyl)amino]-2-[(1-methyl-1,2,3,4-tetrahydro-1-naphthalenyl)methyl]-2-propanol] |  |  | reduced efficacy |
| CC1(CC(O)(CNc2cccc3ncccc23)C(F)(F)F)CCCc2ccccc21 (stereo not shown) [Example 1-D1, 1,1,1-Trifluoro-3-(1-methyl-1,2,3,4-tetrahydro-1-naphthalenyl)-2-[(5-guinolinylamino)methyl]-2-propanol] | < 100 | < 31.6 | reduced efficacy |
| CC1(CC(O)(CNc2cccc3cnccc23)C(F)(F)F)CCCc2ccccc21 (stereo not shown) [Example 3-D2, 1,1,1-Trifluoro-3-(5-isoguinolinylamino)-2-[(1-methyl-1,2,3,4-tetrahydro-1-naphthalenyl)methyl]-2-propanol] |  |  | reduced efficacy |
| CCC1(CC(O)(CNc2cccc3cnccc23)C(F)(F)F)CCCc2ccccc21 (single isomer, unassigned) [Example 4-D1, 3-(1-Ethyl-1,2,3,4-tetrahydro-1-naphthalenyl)-1,1,1-trifluoro-2-[(5-isoquinolinylamino)methyl]-2-propanol] | < 100 |  | reduced efficacy |
| CCC1(CC(O)(CNc2cccc3cnccc23)C(F)(F)F)CCCc2ccccc21 (single isomer, unassigned) [Example 4-D1E2, 3-(1-Ethyl-1,2,3,4-tetrahydro-1-naphthalenyl)-1,1,1-trifluoro-2-[(5-isoquinolinylamino)methyl]-2-propanol] |  | < 31.6 | reduced efficacy |
| CCC1(CC(O)(CNc2cccc3nc(C)ccc23)C(F)(F)F)CCCc2ccccc21 (single isomer, unassigned) [Example 5-D2E1, 3-(1-Ethyl-1,2,3,4-tetrahydro-1-naphthalenyl)-1,1,1-trifluoro-2-[[(2-methyl-5-quinolinyl)amino]methyl]-2-propanol] |  |  | reduced efficacy |
| Cc1ccc2c(NCC(O)(CC3(C)CCCc4ccccc43)C(F)(F)F)cccc2n1 (single isomer, unassigned) [Example 2-D2, 1,1,1-Trifluoro-3-[(2-methyl-5-quinolinyl)amino]-2-[(1-methyl-1,2,3,4-tetrahydro-1-naphthalenyl)methyl]-2-propanol] |  |  | reduced efficacy |
| Cc1ccc2c(NCC(O)(CC3(C)CCCc4ccccc43)C(F)(F)F)cccc2n1 (single isomer, unassigned) [Example 2-D2E1, 1,1,1-Trifluoro-3-[(2-methyl-5-quinolinyl)amino]-2-[(1-methyl-1,2,3,4-tetrahydro-1-naphthalenyl)methyl]-2-propanol] |  |  | reduced efficacy |
| Cc1ccc2c(NCC(O)(CC3(C)CCCc4ccccc43)C(F)(F)F)cccc2n1 (single isomer, unassigned) [Example 2-D1, 1,1,1-Trifluoro-3-[(2-methyl-5-quinolinyl)amino]-2-[(1-methyl-1,2,3,4-tetrahydro-1-naphthalenyl)methyl]-2-propanol] | < 100 | < 31.6 | reduced efficacy |
| CCC1(CC(O)(CNc2cccc3nc(C)ccc23)C(F)(F)F)CCCc2ccccc21 (single isomer, unassigned) [Example 5-D2, 3-(1-Ethyl-1,2,3,4-tetrahydro-1-naphthalenyl)-1,1,1-trifluoro-2-[[(2-methyl-5-quinolinyl)amino]methyl]-2-propanol] |  |  | reduced efficacy |
| CC1(CC(O)(CNc2cccc3cnccc23)C(F)(F)F)CCCc2ccccc21 (single isomer, unassigned) [Example 3-D2E1, 1,1,1-Trifluoro-3-(5-isoguinolinylamino)-2-[(1-methyl-1,2,3,4-tetrahydro-1-naphthalenyl)methyl]-2-propanol] | < 100 |  | reduced efficacy |
| CCC1(CC(O)(CNc2cccc3nc(C)ccc23)C(F)(F)F)CCCc2ccccc21 (single isomer, unassigned) [Example 5-D1E1, 3-(1-Ethyl-1,2,3,4-tetrahydro-1-naphthalenyl)-1,1,1-trifluoro-2-[[(2-methyl-5-quinolinyl)amino]methyl]-2-propanol] |  |  | reduced efficacy |
| CC1(CC(O)(CNc2cccc3cnccc23)C(F)(F)F)CCCc2ccccc21 (single isomer, unassigned) [Example 3-D1E2, 1,1,1-Trifluoro-3-(5-isoguinolinylamino)-2-[(1-methyl-1,2,3,4-tetrahydro-1-naphthalenyl)methyl]-2-propanol] |  | < 31.6 | reduced efficacy |
| Cc1ccc2c(NCC(O)(CC3(C)CCCc4ccccc43)C(F)(F)F)cccc2n1 (single isomer, unassigned) [Example 2-D1E1, 1,1,1-Trifluoro-3-[(2-methyl-5-quinolinyl)amino]-2-[(1-methyl-1,2,3,4-tetrahydro-1-naphthalenyl)methyl]-2-propanol] |  |  | reduced efficacy |
| CC1(CC(O)(CNc2cccc3ncccc23)C(F)(F)F)CCCc2ccccc21 (single isomer, unassigned) [Example 1-D1E1, 1,1,1-Trifluoro-3-(1-methyl-1,2,3,4-tetrahydro-1-naphthalenyl)-2-[(5-guinolinylamino)methyl]-2-propanol] | < 100 | < 31.6 | reduced efficacy |
| CC1(CC(O)(CNc2cccc3cnccc23)C(F)(F)F)CCCc2ccccc21 (stereo not shown) [Example 3-D1, 1,1,1-Trifluoro-3-(5-isoguinolinylamino)-2-[(1-methyl-1,2,3,4-tetrahydro-1-naphthalenyl)methyl]-2-propanol] | < 100 | < 31.6 | reduced efficacy |
